Results published in PubChem BioAssay AID248 (DTP/NCI, 2004).
Values joined by “and” are separate entries in the source; they are usually repeats but may differ in a detail not shown here. Equal entries are not always repeated. Toxic doses and inconclusive results are not listed.

System: L1210 leukemia ip in BDF1 mice, survival T/C
Assay: NCI In Vivo Anticancer Drug Screen. Data for tumor model L1210 Leukemia (intraperitoneal) in B6D2F1 (BDF1) mice
Settings: higher = longer survival
Outline: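 Tumor cells were implanted, animals were treated, and survival was followed. The result divides the treated measurement by the vehicle-control measurement.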

[1] = endpoint: mean survival time, dose: 2.5 mg/kg/injection, schedule: Q01DX009 (ip), vehicle: saline
[2] = endpoint: mean survival time, dose: 5.0 mg/kg/injection, schedule: Q01DX009 (ip), vehicle: saline
[3] = endpoint: mean survival time, dose: 50.0 mg/kg/injection, schedule: Q01DX001 (ip), vehicle: saline
[4] = endpoint: mean survival time, dose: 100.0 mg/kg/injection, schedule: Q01DX009 (ip), vehicle: saline with Tween-80
[5] = endpoint: mean survival time, dose: 200.0 mg/kg/injection, schedule: Q01DX009 (ip), vehicle: saline with Tween-80
[6] = endpoint: mean survival time, dose: 400.0 mg/kg/injection, schedule: Q01DX009 (ip), vehicle: saline with Tween-80
[7] = endpoint: mean survival time, dose: 100.0 mg/kg/injection, schedule: Q01DX009 (ip), vehicle: saline
[8] = endpoint: mean survival time, dose: 200.0 mg/kg/injection, schedule: Q01DX009 (ip), vehicle: saline

NC(Cc1ccc(N(CCCl)CCCl)cc1)C(=O)O (configuration not stated)
T/C (endpoint: mean survival time, dose: 0.32 mg/kg/injection, schedule: Q01DX Z (ip), vehicle: carboxymethylcellulose (CMC)): 110 % of control | T/C (endpoint: mean survival time, dose: 0.37 mg/kg/injection, schedule: Q01DX Z (im), vehicle: saline): 111 % of control | T/C (endpoint: mean survival time, dose: 0.37 mg/kg/injection, schedule: Q01DX Z (ip), vehicle: saline): 111 % of control | T/C (endpoint: mean survival time, dose: 0.37 mg/kg/injection, schedule: Q01DX Z (sc), vehicle: saline): 104 % of control | T/C (endpoint: mean survival time, dose: 0.5 mg/kg/injection, schedule: Q01DX010 (ip), vehicle: alkali diluted with saline): 122 % of control and 123 % of control | T/C (endpoint: mean survival time, dose: 0.51 mg/kg/injection, schedule: Q01DX Z (ip), vehicle: carboxymethylcellulose (CMC)): 119 % of control | T/C (endpoint: mean survival time, dose: 0.64 mg/kg/injection, schedule: Q01DX Z (ip), vehicle: carboxymethylcellulose (CMC)): 122 % of control | T/C (endpoint: mean survival time, dose: 0.75 mg/kg/injection, schedule: Q01DX Z (im), vehicle: saline): 122 % of control | T/C (endpoint: mean survival time, dose: 0.75 mg/kg/injection, schedule: Q01DX Z (ip), vehicle: saline): 115 % of control | T/C (endpoint: mean survival time, dose: 0.75 mg/kg/injection, schedule: Q01DX Z (sc), vehicle: saline): 113 % of control | T/C (endpoint: mean survival time, dose: 1.0 mg/kg/injection, schedule: Q01DX010 (ip), vehicle: alkali diluted with saline): 123 % of control | T/C (endpoint: mean survival time, dose: 1.0 mg/kg/injection, schedule: Q01DX Z (ip), vehicle: methylcellulose (MC)): 151 % of control | T/C (endpoint: mean survival time, dose: 1.25 mg/kg/injection, schedule: Q01DX010 (ip), vehicle: saline): 118 % of control | T/C (endpoint: mean survival time, dose: 1.28 mg/kg/injection, schedule: Q01DX Z (ip), vehicle: carboxymethylcellulose (CMC)): 151 % of control | T/C (endpoint: mean survival time, dose: 1.5 mg/kg/injection, schedule: Q01DX Z (sc), vehicle: saline): 119 % of control | T/C [1]: 123 % of control and 124 % of control | T/C (endpoint: mean survival time, dose: 2.56 mg/kg/injection, schedule: Q01DX Z (ip), vehicle: carboxymethylcellulose (CMC)): 166 % of control | T/C (endpoint: mean survival time, dose: 3.0 mg/kg/injection, schedule: Q01DX006 (iv), vehicle: saline): 119 % of control | T/C (endpoint: mean survival time, dose: 3.0 mg/kg/injection, schedule: Q01DX Z (im), vehicle: saline): 166 % of control and 176 % of control | T/C (endpoint: mean survival time, dose: 3.0 mg/kg/injection, schedule: Q01DX Z (ip), vehicle: saline): 150 % of control and 201 % of control | T/C (endpoint: mean survival time, dose: 3.0 mg/kg/injection, schedule: Q01DX Z (sc), vehicle: saline): 161 % of control | T/C (endpoint: mean survival time, dose: 3.2 mg/kg/injection, schedule: Q01DX Z (ip), vehicle: saline): 113 % of control | T/C (endpoint: mean survival time, dose: 4.0 mg/kg/injection, schedule: Q01DX009 (ip), vehicle: saline): 187 % of control and 200 % of control | T/C [2]: 167 % of control | T/C (endpoint: mean survival time, dose: 5.0 mg/kg/injection, schedule: Q01DX010 (ip), vehicle: saline): 152 % of control | T/C (endpoint: mean survival time, dose: 6.0 mg/kg/injection, schedule: Q01DX006 (iv), vehicle: saline): 114 % of control | T/C (endpoint: mean survival time, dose: 6.0 mg/kg/injection, schedule: Q01DX Z (im), vehicle: saline): 154 % of control | T/C (endpoint: mean survival time, dose: 6.0 mg/kg/injection, schedule: Q01DX Z (ip), vehicle: saline): 164 % of control | T/C (endpoint: mean survival time, dose: 6.0 mg/kg/injection, schedule: Q01DX Z (sc), vehicle: saline): 185 % of control | T/C (endpoint: mean survival time, dose: 6.3 mg/kg/injection, schedule: Q01DX Z (ip), vehicle: saline): 86 % of control | T/C (endpoint: mean survival time, dose: 8.0 mg/kg/injection, schedule: Q01DX001 (ip), vehicle: carboxymethylcellulose (CMC)): 181 % of control | T/C (endpoint: mean survival time, dose: 8.0 mg/kg/injection, schedule: Q01DX009 (ip), vehicle: saline): 111 % of control and 122 % of control | T/C (endpoint: mean survival time, dose: 10.0 mg/kg/injection, schedule: Q01DX009 (ip), vehicle: saline): 167 % of control and 193 % of control | T/C (endpoint: mean survival time, dose: 10.0 mg/kg/injection, schedule: Q01DX010 (ip), vehicle: saline): 177 % of control | T/C (endpoint: mean survival time, dose: 12.0 mg/kg/injection, schedule: Q01DX001 (ip), vehicle: carboxymethylcellulose (CMC)): 253 % of control | T/C (endpoint: mean survival time, dose: 12.0 mg/kg/injection, schedule: Q01DX006 (iv), vehicle: saline): 123 % of control | T/C (endpoint: mean survival time, dose: 12.0 mg/kg/injection, schedule: Q01DX Z (oral), vehicle: saline): 90 % of control | T/C (endpoint: mean survival time, dose: 12.0 mg/kg/injection, schedule: Q01DX Z (sc), vehicle: saline): 111 % of control | T/C (endpoint: mean survival time, dose: 15.0 mg/kg/injection, schedule: Q01DX Z (ip), vehicle: carboxymethylcellulose (CMC)): 172 % of control | T/C (endpoint: mean survival time, dose: 16.0 mg/kg/injection, schedule: Q01DX009 (ip), vehicle: saline): 93 % of control | T/C (endpoint: mean survival time, dose: 16.0 mg/kg/injection, schedule: Q01DX Z (ip), vehicle: methylcellulose (MC)): 90 % of control | T/C (endpoint: mean survival time, dose: 18.0 mg/kg/injection, schedule: Q01DX001 (ip), vehicle: carboxymethylcellulose (CMC)): 341 % of control | T/C (endpoint: mean survival time, dose: 18.0 mg/kg/injection, schedule: Q01DX001 (ip), vehicle: saline): 202 % of control and 233 % of control | T/C (endpoint: mean survival time, dose: 20.0 mg/kg/injection, schedule: Q01DX009 (ip), vehicle: saline): 94 % of control | T/C (endpoint: mean survival time, dose: 20.0 mg/kg/injection, schedule: Q01DX010 (ip), vehicle: saline): 117 % of control | T/C (endpoint: mean survival time, dose: 22.0 mg/kg/injection, schedule: Q01DX Z (ip), vehicle: carboxymethylcellulose (CMC)): 87 % of control | T/C (endpoint: mean survival time, dose: 24.0 mg/kg/injection, schedule: Q01DX006 (iv), vehicle: saline): 123 % of control | T/C (endpoint: mean survival time, dose: 25.0 mg/kg/injection, schedule: Q01DX001 (ip), vehicle: saline): 118 % of control and 229 % of control and 230 % of control | T/C (endpoint: mean survival time, dose: 35.0 mg/kg/injection, schedule: Q01DX001 (ip), vehicle: saline): 161 % of control and 240 % of control | T/C [3]: 87 % of control | T/C (endpoint: median survival time, dose: 10.0 mg/kg/injection, schedule: Q01DX009 (ip), vehicle: saline): 155 % of control and 156 % of control | T/C (endpoint: median survival time, dose: 20.0 mg/kg/injection, schedule: Q01DX009 (ip), vehicle: saline): 112 % of control

CCSC(=O)N=Nc1ccc(O)cc1
T/C [3]: 103 % of control | T/C (endpoint: mean survival time, dose: 100.0 mg/kg/injection, schedule: Q01DX001 (ip), vehicle: saline): 100 % of control | T/C (endpoint: mean survival time, dose: 200.0 mg/kg/injection, schedule: Q01DX001 (ip), vehicle: saline): 94 % of control | T/C (endpoint: mean survival time, dose: 400.0 mg/kg/injection, schedule: Q01DX001 (ip), vehicle: saline): 111 % of control

COc1ccc(CN2CCN(Cc3ccc(OC)c(OC)c3)C2c2ccc(OC)c(OC)c2)cc1OC
T/C [4]: 94 % of control | T/C (endpoint: mean survival time, dose: 100.0 mg/kg/injection, schedule: Q04DX003 (ip), vehicle: saline with Tween-80): 102 % of control | T/C [5]: 104 % of control | T/C (endpoint: mean survival time, dose: 200.0 mg/kg/injection, schedule: Q04DX003 (ip), vehicle: saline with Tween-80): 93 % of control | T/C [6]: 108 % of control | T/C (endpoint: mean survival time, dose: 400.0 mg/kg/injection, schedule: Q04DX003 (ip), vehicle: saline with Tween-80): 91 % of control

O=C(O)c1ccc(=O)[nH]c1
T/C [7]: 95 % of control | T/C (endpoint: mean survival time, dose: 100.0 mg/kg/injection, schedule: Q04DX003 (ip), vehicle: saline): 107 % of control | T/C [8]: 96 % of control | T/C (endpoint: mean survival time, dose: 200.0 mg/kg/injection, schedule: Q04DX003 (ip), vehicle: saline): 109 % of control | T/C (endpoint: mean survival time, dose: 400.0 mg/kg/injection, schedule: Q01DX009 (ip), vehicle: saline): 95 % of control | T/C (endpoint: mean survival time, dose: 400.0 mg/kg/injection, schedule: Q04DX003 (ip), vehicle: saline): 104 % of control

COc1c(-c2cc(C)nc(NC#N)n2)c(O)c(OC)c2occc12
T/C (endpoint: mean survival time, dose: 100.0 mg/kg/injection, schedule: Q04DX002 (ip), vehicle: Klucel (hydroxypropylcellulose) (HPC)): 109 % of control | T/C (endpoint: mean survival time, dose: 200.0 mg/kg/injection, schedule: Q04DX002 (ip), vehicle: Klucel (hydroxypropylcellulose) (HPC)): 98 % of control | T/C (endpoint: mean survival time, dose: 400.0 mg/kg/injection, schedule: Q04DX002 (ip), vehicle: Klucel (hydroxypropylcellulose) (HPC)): 98 % of control

Cn1ncc(=O)[nH]c1=O
T/C (endpoint: mean survival time, dose: 50.0 mg/kg/injection, schedule: Q01DX009 (ip), vehicle: saline): 100 % of control | T/C [7]: 108 % of control | T/C [8]: 103 % of control

CC(C)(N)COC(=O)c1ccc([N+](=O)[O-])cc1
T/C (endpoint: mean survival time, dose: 50.0 mg/kg/injection, schedule: Q01DX009 (ip), vehicle: acetone): 101 % of control | T/C (endpoint: mean survival time, dose: 100.0 mg/kg/injection, schedule: Q01DX009 (ip), vehicle: acetone): 101 % of control | T/C (endpoint: mean survival time, dose: 200.0 mg/kg/injection, schedule: Q01DX009 (ip), vehicle: acetone): 95 % of control

C=CC(=O)N1CN(C(=O)C=C)CN(C(=O)C=C)C1
T/C (endpoint: mean survival time, dose: 1.25 mg/kg/injection, schedule: Q01DX009 (ip), vehicle: saline): 99 % of control | T/C [1]: 99 % of control | T/C [2]: 104 % of control

Cc1cc([N+](=O)[O-])cc(C)c1N
T/C (endpoint: mean survival time, dose: 50.0 mg/kg/injection, schedule: Q01DX001 (ip), vehicle: carboxymethylcellulose (CMC)): 100 % of control | T/C (endpoint: mean survival time, dose: 100.0 mg/kg/injection, schedule: Q01DX001 (ip), vehicle: carboxymethylcellulose (CMC)): 102 % of control | T/C (endpoint: mean survival time, dose: 200.0 mg/kg/injection, schedule: Q01DX001 (ip), vehicle: carboxymethylcellulose (CMC)): 100 % of control | T/C (endpoint: mean survival time, dose: 400.0 mg/kg/injection, schedule: Q01DX001 (ip), vehicle: carboxymethylcellulose (CMC)): 110 % of control

O=CNc1ccc(O)cc1
T/C [4]: 104 % of control | T/C [5]: 108 % of control | T/C [6]: 114 % of control
